Values quoted from earlier work in US20200317616A1, “Crystalline Form of Betrixaban Maleate” (Apotex Inc., priority 2019, published 2020).
Structures can show the parent of a compound that is named as a salt.

Legend:
[1] = labelling of BEVYXXA
[2] = anhydrous form, CDER review NDA 208383
[3] = anhydrous form, CDER review NDA 208383; remark: listed apart in the source

SMILES | oral bioavailability [1] [%] | solubility [2] | permeability [3]
COc1ccc(NC(=O)c2ccc(C(=N)N(C)C)cc2)c(C(=O)Nc2ccc(Cl)cn2)c1 [Betrixaban, N-(5-chloropyridin-2-yl)-2-[4-(N,N-dimethylcarbamimidoyl)-benzoylamino]-5-methoxybenzamide] | 34 | – | –
COc1ccc(NC(=O)c2ccc(C(=N)N(C)C)cc2)c(C(=O)Nc2ccc(Cl)cn2)c1 [Betrixaban maleate] | – | high | low
